# Results taken from PMC5218480 (PLoS ONE, 2017).
# Test system: MV-4-11 cells
# Assay: Gene expression microarray analysis (Affymetrix PrimeView) and GSEA
# Format: cell-based, human
# Set-up: RFU PODN (11730768_x_at) / Fold change /veh PODN (11730768_x_at) / RFU LINC00158 (11744669_a_at) / Fold change /veh LINC00158 (11744669_a_at) / RFU DUSP10 (11751237_a_at) / Fold change /veh DUSP10 (11751237_a_at) / RFU ID3 (11757404_x_at) / Fold change /veh ID3 (11757404_x_at) / RFU PLEKHG5 (11737974_s_at) / Fold change /veh PLEKHG5 (11737974_s_at) / RFU LRRC4B (11730491_at) / Fold change /veh LRRC4B (11730491_at) / RFU GIMAP4 (11747438_a_at) / Fold change /veh GIMAP4 (11747438_a_at) / RFU KRT8 (11758183_x_at) / Fold change /veh KRT8 (11758183_x_at) / RFU CNN1 (11734310_a_at) / Fold change /veh CNN1 (11734310_a_at) / RFU VPS37D (11726825_at) / Fold change /veh VPS37D (11726825_at) / RFU C10orf10 (11716522_x_at) / Fold change /veh C10orf10 (11716522_x_at) / RFU KIR2DL2 /// KIR2DL4 /// KIR2DL5A /// KIR2DL5B /// KIR2DS1 /// KIR2DS2 /// KIR2DS3 /// KIR2DS4 /// KIR3DL3 /// KIR3DL3 /// KIR3DS1 (11738374_at) / Fold change /veh KIR2DL2 /// KIR2DL4 /// KIR2DL5A /// KIR2DL5B /// KIR2DS1 /// KIR2DS2 /// KIR2DS3 /// KIR2DS4 /// KIR3DL3 /// KIR3DL3 /// KIR3DS1 (11738374_at) / RFU C1QL1 (11718748_at) / Fold change /veh C1QL1 (11718748_at) / RFU TMPRSS4 (11747572_a_at) / Fold change /veh TMPRSS4 (11747572_a_at) / RFU HAMP (11756126_x_at) / Fold change /veh HAMP (11756126_x_at) / RFU RNFT2 (11725882_a_at) / Fold change /veh RNFT2 (11725882_a_at) / RFU NR4A2 (11747474_a_at) / Fold change /veh NR4A2 (11747474_a_at) / RFU ABCC12 (11746883_a_at) / Fold change /veh ABCC12 (11746883_a_at) / RFU TMEM136 (11760407_x_at) / Fold change /veh TMEM136 (11760407_x_at) / RFU CLDN22 /// WWC2 (11732394_at) / Fold change /veh CLDN22 /// WWC2 (11732394_at) / RFU HLA-DPB1 (11760878_x_at) / Fold change /veh HLA-DPB1 (11760878_x_at) / RFU SPINT1 (11716480_a_at) / Fold change /veh SPINT1 (11716480_a_at) / RFU GAP43 (11754022_s_at) / Fold change /veh GAP43 (11754022_s_at) / RFU A4GNT (11735810_at) / Fold change /veh A4GNT (11735810_at) / RFU PRB3 (11715151_x_at) / Fold change /veh PRB3 (11715151_x_at) / RFU TUBB4B (11761932_at) / Fold change /veh TUBB4B (11761932_at) / RFU CAPN14 (11732068_a_at) / Fold change /veh CAPN14 (11732068_a_at) / RFU TMCC2 (11721928_a_at) / Fold change /veh TMCC2 (11721928_a_at) / RFU IRGQ (11745062_a_at) / Fold change /veh IRGQ (11745062_a_at) / RFU FAM174B (11720279_a_at) / Fold change /veh FAM174B (11720279_a_at) / RFU TMPRSS4 (11748680_a_at) / Fold change /veh TMPRSS4 (11748680_a_at) / RFU FAM212B (11763350_a_at) / Fold change /veh FAM212B (11763350_a_at) / RFU PLEKHG5 (11743358_a_at) / Fold change /veh PLEKHG5 (11743358_a_at) / RFU ZSCAN30 (11745921_a_at) / Fold change /veh ZSCAN30 (11745921_a_at) / RFU CMKLR1 (11741424_a_at) / Fold change /veh CMKLR1 (11741424_a_at) / RFU LOC101060620 /// MAPK8IP1 (11723275_at) / Fold change /veh LOC101060620 /// MAPK8IP1 (11723275_at) / RFU SPTSSB (11747773_x_at) / Fold change /veh SPTSSB (11747773_x_at) / RFU PRSS12 (11739890_at) / Fold change /veh PRSS12 (11739890_at) / RFU BIN1 (11741810_x_at) / Fold change /veh BIN1 (11741810_x_at) / RFU WNT11 (11732464_a_at) / Fold change /veh WNT11 (11732464_a_at) / RFU C10orf10 (11716521_a_at) / Fold change /veh C10orf10 (11716521_a_at) / RFU C5orf56 (11738089_at) / Fold change /veh C5orf56 (11738089_at) / RFU CYB561 (11721691_x_at) / Fold change /veh CYB561 (11721691_x_at) / RFU ANKRD19P (11752326_a_at) / Fold change /veh ANKRD19P (11752326_a_at) / RFU OR2T12 /// OR2T33 /// OR2T8 (11738714_s_at) / Fold change /veh OR2T12 /// OR2T33 /// OR2T8 (11738714_s_at) / RFU VCAN (11748164_a_at) / Fold change /veh VCAN (11748164_a_at) / RFU JSRP1 (11732532_at) / Fold change /veh JSRP1 (11732532_at) / RFU KRTAP10-11 (11738290_x_at) / Fold change /veh KRTAP10-11 (11738290_x_at) / RFU MYO3A (11730013_a_at) / Fold change /veh MYO3A (11730013_a_at) / RFU EBF3 (11725865_a_at) / Fold change /veh EBF3 (11725865_a_at) / RFU CAMK2N1 (11719241_x_at) / Fold change /veh CAMK2N1 (11719241_x_at) / RFU C5orf56 (11738088_a_at) / Fold change /veh C5orf56 (11738088_a_at) / RFU OLFML3 (11715873_a_at) / Fold change /veh OLFML3 (11715873_a_at) / RFU LOC100653217 /// NTM (11731650_a_at) / Fold change /veh LOC100653217 /// NTM (11731650_a_at) / RFU MAPK11 (11762145_a_at) / Fold change /veh MAPK11 (11762145_a_at) / RFU FIZ1 (11724087_x_at) / Fold change /veh FIZ1 (11724087_x_at) / RFU OASL (11726364_x_at) / Fold change /veh OASL (11726364_x_at) / RFU SOX15 (11748057_x_at) / Fold change /veh SOX15 (11748057_x_at) / RFU CD79A (11719716_a_at) / Fold change /veh CD79A (11719716_a_at) / RFU HIST1H1D (11736915_at) / Fold change /veh HIST1H1D (11736915_at) / RFU CASKIN2 (11723855_a_at) / Fold change /veh CASKIN2 (11723855_a_at) / RFU LOC730098 (11760151_x_at) / Fold change /veh LOC730098 (11760151_x_at) / RFU OR4N2 (11742367_at) / Fold change /veh OR4N2 (11742367_at) / RFU PRRT2 (11749266_a_at) / Fold change /veh PRRT2 (11749266_a_at) / RFU SNX32 (11753110_a_at) / Fold change /veh SNX32 (11753110_a_at) / RFU CDHR5 (11726645_a_at) / Fold change /veh CDHR5 (11726645_a_at) / RFU RCAN1 (11760418_a_at) / Fold change /veh RCAN1 (11760418_a_at) / RFU FAM167A (11723789_a_at) / Fold change /veh FAM167A (11723789_a_at) / RFU FAM26E (11764081_at) / Fold change /veh FAM26E (11764081_at) / RFU ISYNA1 (11749810_s_at) / Fold change /veh ISYNA1 (11749810_s_at) / RFU ACY1 (11761880_at) / Fold change /veh ACY1 (11761880_at) / RFU 11764098_at / Fold change /veh 11764098_at / RFU SAMD14 (11745864_x_at) / Fold change /veh SAMD14 (11745864_x_at) / RFU NPB (11741838_a_at) / Fold change /veh NPB (11741838_a_at) / RFU TMPRSS6 (11731388_a_at) / Fold change /veh TMPRSS6 (11731388_a_at) / RFU KRTAP10-2 (11738614_at) / Fold change /veh KRTAP10-2 (11738614_at) / RFU ARHGAP8 /// PRR5-ARHGAP8 (11727945_x_at) / Fold change /veh ARHGAP8 /// PRR5-ARHGAP8 (11727945_x_at) / RFU KRTAP5-7 /// NADSYN1 (11734609_at) / Fold change /veh KRTAP5-7 /// NADSYN1 (11734609_at) / RFU RASL12 (11751679_a_at) / Fold change /veh RASL12 (11751679_a_at) / RFU CDKN2B (11736163_a_at) / Fold change /veh CDKN2B (11736163_a_at) / RFU PRF1 (11729649_at) / Fold change /veh PRF1 (11729649_at) / RFU, ZNF638 /// ZNF638-IT1 / Fold change vs veh, ZNF638 /// ZNF638-IT1 / RFU, PANK3 / Fold change vs veh, PANK3 / RFU, SH3YL1 / Fold change vs veh, SH3YL1 / RFU, ZEB2 / Fold change vs veh, ZEB2 / RFU, NRIP1 / Fold change vs veh, NRIP1 / RFU, PTTG1IP / Fold change vs veh, PTTG1IP / RFU, CAPN2 / Fold change vs veh, CAPN2 / RFU, MED14 / Fold change vs veh, MED14 / RFU, SNORA58 / Fold change vs veh, SNORA58 / RFU, C1orf63 / Fold change vs veh, C1orf63 / RFU, LRRFIP1 / Fold change vs veh, LRRFIP1 / RFU, NDUFAF7 / Fold change vs veh, NDUFAF7 / RFU, SLC12A2 / Fold change vs veh, SLC12A2 / RFU, IBTK / Fold change vs veh, IBTK / RFU, ESF1 / Fold change vs veh, ESF1 / Fold change vs veh, TMEM50B / RFU, TAOK1 / Fold change vs veh, TAOK1 / RFU, ACBD3 / Fold change vs veh, ACBD3 / RFU, TMA16 / Fold change vs veh, TMA16 / RFU, RWDD3 / Fold change vs veh, RWDD3 / RFU, BCAT1 / Fold change vs veh, BCAT1 / RFU, EDEM3 / Fold change vs veh, EDEM3 / RFU, TMEM33 / Fold change vs veh, TMEM33 / RFU, WDR75 / Fold change vs veh, WDR75 / RFU, AHCTF1 / Fold change vs veh, AHCTF1 / RFU, TFRC / Fold change vs veh, TFRC / RFU, ZDHHC17 / Fold change vs veh, ZDHHC17 / RFU, NOM1 / Fold change vs veh, NOM1 / RFU, ARL8B / Fold change vs veh, ARL8B / RFU, ZBTB11 / Fold change vs veh, ZBTB11 / RFU, TAMM41 / Fold change vs veh, TAMM41 / RFU, KIAA1704 /// LOC100996395 / Fold change vs veh, KIAA1704 /// LOC100996395 / RFU, ING1 / Fold change vs veh, ING1 / RFU, TRMT61B / Fold change vs veh, TRMT61B / RFU, FUBP3 / Fold change vs veh, FUBP3 / RFU, TP53 / Fold change vs veh, TP53 / RFU, TNKS2 / Fold change vs veh, TNKS2 / RFU, ZFP14 / Fold change vs veh, ZFP14 / RFU, ACTR2 / Fold change vs veh, ACTR2 / RFU, PPP3R1 / Fold change vs veh, PPP3R1 / RFU, PIK3R1 / Fold change vs veh, PIK3R1 / RFU, HNRNPA1 / Fold change vs veh, HNRNPA1 / RFU, RNF170 / Fold change vs veh, RNF170 / RFU, ZNF28 / Fold change vs veh, ZNF28 / RFU, RNGTT / Fold change vs veh, RNGTT / RFU, OGT / Fold change vs veh, OGT / RFU, BRD1 / Fold change vs veh, BRD1 / RFU, MARS / Fold change vs veh, MARS / RFU, ZNF655 / Fold change vs veh, ZNF655 / RFU, FAHD1 / Fold change vs veh, FAHD1 / RFU, BDP1 / Fold change vs veh, BDP1 / RFU, LRRCC1 / Fold change vs veh, LRRCC1 / RFU, ARID1A / Fold change vs veh, ARID1A / RFU, ZNF146 / Fold change vs veh, ZNF146 / RFU, ZNF330 / Fold change vs veh, ZNF330 / RFU, GPN3 / Fold change vs veh, GPN3 / RFU, C9orf123 / Fold change vs veh, C9orf123 / RFU, N4BP2L2 / Fold change vs veh, N4BP2L2 / RFU, ARFIP1 / Fold change vs veh, ARFIP1 / RFU, FAM179B / Fold change vs veh, FAM179B / RFU, BCL10 / Fold change vs veh, BCL10 / RFU, UHRF1BP1L / Fold change vs veh, UHRF1BP1L / RFU, BET1 / Fold change vs veh, BET1 / RFU, CNOT2 / Fold change vs veh, CNOT2 / RFU, ZNF268 / Fold change vs veh, ZNF268 / Fold change vs veh, ZNF507 / RFU, DGCR2 / Fold change vs veh, DGCR2 / RFU, WDSUB1 / Fold change vs veh, WDSUB1 / Fold change vs veh, HSP90B1 /// MIR3652 / RFU, ADSS / Fold change vs veh, ADSS / RFU, GK / Fold change vs veh, GK / RFU, ZNF148 / Fold change vs veh, ZNF148 / RFU, TAF9 / Fold change vs veh, TAF9 / RFU, SLC1A5 / Fold change vs veh, SLC1A5 / RFU, SLMO2 / Fold change vs veh, SLMO2 / RFU, ABCC4 / Fold change vs veh, ABCC4 / RFU, LOC101060439 /// RAP1B / Fold change vs veh, LOC101060439 /// RAP1B / RFU, RFX7 / Fold change vs veh, RFX7 / RFU, GTPBP10 / Fold change vs veh, GTPBP10 / RFU, CNEP1R1 / Fold change vs veh, CNEP1R1 / RFU, BIVM-ERCC5 /// ERCC5 / Fold change vs veh, BIVM-ERCC5 /// ERCC5 / RFU, ILF3 / Fold change vs veh, ILF3 / RFU 11762660_at / Fold change /veh 11762660_at / RFU VCAN (11757783_s_at) / Fold change /veh VCAN (11757783_s_at) / RFU DDX43 (11728927_at) / Fold change /veh DDX43 (11728927_at) / RFU KRT8 (11758188_x_at) / Fold change /veh KRT8 (11758188_x_at) / RFU NKD1 (11759106_at) / Fold change /veh NKD1 (11759106_at) / RFU SRD5A1 (11742802_a_at) / Fold change /veh SRD5A1 (11742802_a_at) / RFU TPSAB1 /// TPSB2 (11721975_s_at) / Fold change /veh TPSAB1 /// TPSB2 (11721975_s_at) / RFU GSTM3 (11746129_a_at) / Fold change /veh GSTM3 (11746129_a_at) / RFU IL23R (11737362_x_at) / Fold change /veh IL23R (11737362_x_at) / RFU TMEM51 (11727254_a_at) / Fold change /veh TMEM51 (11727254_a_at) / RFU PIWIL2 (11732686_x_at) / Fold change /veh PIWIL2 (11732686_x_at) / RFU ORM1 (11744905_x_at) / Fold change /veh ORM1 (11744905_x_at) / RFU CCDC152 (11743942_at) / Fold change /veh CCDC152 (11743942_at) / RFU ECM1 (11717891_a_at) / Fold change /veh ECM1 (11717891_a_at) / RFU IL23R (11748794_a_at) / Fold change /veh IL23R (11748794_a_at) / RFU TNFAIP8L3 (11732012_x_at) / Fold change /veh TNFAIP8L3 (11732012_x_at) / RFU MBOAT4 (11741988_at) / Fold change /veh MBOAT4 (11741988_at) / RFU 11764193_at / Fold change /veh 11764193_at / RFU TMEM53 (11763286_at) / Fold change /veh TMEM53 (11763286_at) / RFU MAGEB2 (11727129_at) / Fold change /veh MAGEB2 (11727129_at) / RFU TMEM200A (11744735_a_at) / Fold change /veh TMEM200A (11744735_a_at) / RFU CCDC152 (11751479_a_at) / Fold change /veh CCDC152 (11751479_a_at) / RFU FAM211A (11726209_a_at) / Fold change /veh FAM211A (11726209_a_at) / RFU RGS16 (11746705_a_at) / Fold change /veh RGS16 (11746705_a_at) / RFU VCAN (11755009_s_at) / Fold change /veh VCAN (11755009_s_at) / RFU RHOB (11743442_s_at) / Fold change /veh RHOB (11743442_s_at) / RFU RGS16 (11720943_a_at) / Fold change /veh RGS16 (11720943_a_at) / RFU RGS16 (11720944_at) / Fold change /veh RGS16 (11720944_at) / RFU, VPS4B / Fold change vs veh, VPS4B / RFU, CREB1 / Fold change vs veh, CREB1 / RFU, DNAJC13 / Fold change vs veh, DNAJC13 / RFU, GNAQ / Fold change vs veh, GNAQ / RFU, CDK5R1 / Fold change vs veh, CDK5R1 / RFU, ZRANB3 / Fold change vs veh, ZRANB3 / RFU, CUL4A / Fold change vs veh, CUL4A / RFU, CCNY / Fold change vs veh, CCNY / RFU, UFL1 / Fold change vs veh, UFL1 / RFU, COG3 / Fold change vs veh, COG3 / RFU, DIAPH2 / Fold change vs veh, DIAPH2 / RFU, SKA2 / Fold change vs veh, SKA2 / RFU, AFF3 / Fold change vs veh, AFF3 / RFU, LMF1 / Fold change vs veh, LMF1 / RFU, IPO11 / Fold change vs veh, IPO11 / RFU, DFFB / Fold change vs veh, DFFB / RFU, FOXP1 / Fold change vs veh, FOXP1 / RFU, CARD8 / Fold change vs veh, CARD8 / RFU, STRN3 / Fold change vs veh, STRN3 / RFU, ADK / Fold change vs veh, ADK / RFU, RASSF2 / Fold change vs veh, RASSF2 / RFU, WIPF1 / Fold change vs veh, WIPF1 / RFU, LARP1B / Fold change vs veh, LARP1B / RFU, RASA1 / Fold change vs veh, RASA1 / RFU, RB1 / Fold change vs veh, RB1 / RFU, PPFIA1 / Fold change vs veh, PPFIA1 / RFU, MAT2A / Fold change vs veh, MAT2A / RFU, CCT5 / Fold change vs veh, CCT5 / RFU, WDR92 / Fold change vs veh, WDR92 / RFU, CUX1 / Fold change vs veh, CUX1 / RFU, TTC7A / Fold change vs veh, TTC7A / RFU, TMEM135 / Fold change vs veh, TMEM135 / RFU, DEPTOR / Fold change vs veh, DEPTOR / RFU, CPM / Fold change vs veh, CPM / RFU, DNAJB6 / Fold change vs veh, DNAJB6 / RFU, CACNA2D3 / Fold change vs veh, CACNA2D3 / RFU, DTX4 / Fold change vs veh, DTX4 / RFU, TFCP2 / Fold change vs veh, TFCP2 / RFU, GMCL1 /// GMCL1P1 / Fold change vs veh, GMCL1 /// GMCL1P1 / RFU, AEBP2 / Fold change vs veh, AEBP2 / RFU, SNHG1 /// SNORD22 /// SNORD25 /// SNORD26 /// SNORD27 /// SNORD28 /// SNORD29 /// SNORD31 / Fold change vs veh, SNHG1 /// SNORD22 /// SNORD25 /// SNORD26 /// SNORD27 /// SNORD28 /// SNORD29 /// SNORD31 / Fold change (Aza/veh), C12orf56 (ProbeSet 11735607_a_at) / Fold change (ACY-1035/veh), C12orf56 (ProbeSet 11735607_a_at) / Fold change (Aza/veh), FGFR1OP (ProbeSet 11751329_s_at) / Fold change (ACY-1035/veh), FGFR1OP (ProbeSet 11751329_s_at) / Fold change (Aza/veh), VPS36 (ProbeSet 11739960_a_at) / Fold change (ACY-1035/veh), VPS36 (ProbeSet 11739960_a_at) / RFU SYPL1 (11715823_x_at) / Fold change /veh SYPL1 (11715823_x_at) / RFU IGFBP7 (11715501_s_at) / Fold change /veh IGFBP7 (11715501_s_at) / RFU REEP3 (11722064_at) / Fold change /veh REEP3 (11722064_at) / RFU IGLL1 (11728026_x_at) / Fold change /veh IGLL1 (11728026_x_at): dose or concentration left out as unconfirmed
# Details: MV-4-11 cells, 48 hours
smiles,measurement,value
Nc1ncn([C@@H]2O[C@H](CO)[C@@H](O)[C@H]2O)c(=O)n1 [azacitidine],RFU LRRC4B (11730491_at),28.29 RFU
